Results from DBAASP.
In brackets after ≈: the same amount, converted by molar mass. Several values for one entry are separate records, joined by “and”; a condition that tells them apart may be missing. Equal entries are not always repeated. One block for each compound: values may come before it.

How the values were obtained:
Assay in all cases: ≥ marks a high value that may be exact or a test limit, other limits are often not marked, values filed in µg/mL are converted to µM
[1] = system: Candida albicans ATCC 10231
[2] = system: Enterococcus faecalis ATCC 29212
[3] = system: Escherichia coli ATCC 25922
[4] = system: Pseudomonas aeruginosa ATCC 15422
[5] = system: Staphylococcus epidermidis KCTC 1917
[6] = system: Bacillus subtilis ATCC 6633
[7] = system: Escherichia coli ATCC 10536
[8] = system: Escherichia coli DH5alpha
[9] = system: Staphylococcus aureus ATCC 9144
[10] = system: Bacillus subtilis IFO 3513
[11] = system: Escherichia coli IFO 12734
[12] = system: Staphylococcus aureus IFO 12732
[13] = system: Staphylococcus aureus ATCC BAA-1556
Bacillus subtilis = system: Bacillus subtilis
Escherichia coli = system: Escherichia coli
[14] = system: Klebsiella pneumoniae ATCC 13883
[15] = system: Pseudomonas aeruginosa ATCC 27853
[16] = system: Salmonella enterica subsp. enterica serovar Typhimurium ATCC 14028
[17] = system: Staphylococcus aureus ATCC 25923
[18] = system: Streptococcus pyogenes ATCC 19615
[19] = system: Staphylococcus aureus USA 100
[20] = system: Staphylococcus aureus NCTC 10788
[21] = system: Candida albicans ATCC 90028
[22] = system: Pseudomonas aeruginosa ATCC 9027
[23] = system: Staphylococcus aureus USA 300
[24] = system: Acinetobacter calcoaceticus
[25] = system: Candida albicans ATCC 2002
Pseudomonas aeruginosa = system: Pseudomonas aeruginosa
Shigella dysenteriae = system: Shigella dysenteriae
[26] = system: Staphylococcus aureus ATCC 2592

Compound: CC[C@H](C)[C@H](NC(=O)[C@H](CCCN=C(N)N)NC(=O)[C@@H](NC(=O)[C@@H](NC(=O)[C@@H]1CCCN1C(=O)[C@@H](NC(=O)[C@@H](NC(=O)[C@H](C)NC(=O)[C@@H]1CCCN1C(=O)CNC(=O)[C@H](Cc1ccc(O)cc1)NC(=O)[C@H](CCCCN)NC(=O)[C@H](CCCCN)NC(=O)[C@H](Cc1c[nH]c2ccccc12)NC(=O)[C@H](C)NC(=O)[C@H](CCCN=C(N)N)NC(=O)[C@H](CC(C)C)NC(=O)[C@H](C)NC(=O)[C@H](CCCCN)NC(=O)[C@H](CCCN=C(N)N)NC(=O)CNC(=O)[C@H](CC(C)C)NC(=O)[C@H](CO)NC(=O)[C@H](CCCN=C(N)N)NC(=O)[C@H](C)NC(=O)CNC(=O)CN)[C@@H](C)CC)C(C)C)[C@@H](C)CC)[C@@H](C)CC)C(N)=O [GGARSLGRKALRAWKKYGPAIVPIIRI]
MIC [6]: 1.7 µM (≈ 5.01 µg/mL)
MIC [7]: 2.6 µM (≈ 7.66 µg/mL)
MIC [8]: 2.6 µM (≈ 7.66 µg/mL)
MIC [9]: 3.9 µM (≈ 11.5 µg/mL)

Compound: CC[C@H](C)[C@H](N)C(=O)N[C@@H](CC(C)C)C(=O)N1CCC[C@H]1C(=O)N[C@@H](Cc1c[nH]c2ccccc12)C(=O)N[C@@H](CCCCN)C(=O)N[C@@H](Cc1c[nH]c2ccccc12)C(=O)N1CCC[C@H]1C(=O)N[C@@H](Cc1c[nH]c2ccccc12)C(=O)N[C@@H](CC(C)C)C(=O)N1CCC[C@H]1C(=O)N[C@@H](Cc1c[nH]c2ccccc12)C(=O)N[C@@H](CCCCN)C(=O)N[C@@H](CCCCN)C(N)=O [ILPWKWPWLPWKK]
MIC [10]: 1.76 µM (≈ 3.13 µg/mL)
MIC [11]: 28.1 µM (≈ 50 µg/mL)
MIC [12]: 1.76 µM (≈ 3.13 µg/mL)

Compound: CC[C@H](C)[C@H](N)C(=O)N[C@@H](CC(C)C)C(=O)N1CCC[C@H]1C(=O)N[C@@H](Cc1c[nH]c2ccccc12)C(=O)N[C@@H](CCCCN)C(=O)N[C@@H](Cc1c[nH]c2ccccc12)C(=O)N1CCC[C@H]1C(=O)N[C@@H](Cc1ccc(O)cc1)C(=O)N[C@@H](CC(C)C)C(=O)N1CCC[C@H]1C(=O)N[C@@H](Cc1c[nH]c2ccccc12)C(=O)N[C@@H](CCCN=C(N)N)C(=O)N[C@@H](CCCN=C(N)N)C(N)=O [ILPWKWPYLPWRR]
MIC [10]: 1.73 µM (≈ 3.13 µg/mL)
MIC [11]: 13.8 µM (≈ 25 µg/mL)
MIC [12]: 3.45 µM (≈ 6.25 µg/mL)

Compound: CC[C@H](C)[C@H](N)C(=O)N[C@@H](CC(C)C)C(=O)N1CCC[C@H]1C(=O)N[C@@H](CC(C)C)C(=O)N[C@@H](CCCCN)C(=O)N[C@@H](CC(C)C)C(=O)N1CCC[C@H]1C(=O)N[C@@H](Cc1c[nH]c2ccccc12)C(=O)N[C@@H](Cc1c[nH]c2ccccc12)C(=O)N1CCC[C@H]1C(=O)N[C@@H](Cc1c[nH]c2ccccc12)C(=O)N[C@@H](CCCN=C(N)N)C(=O)N[C@@H](CCCN=C(N)N)C(N)=O [ILPLKLPWWPWRR]
MIC [10]: 1.78 µM (≈ 3.13 µg/mL)
MIC [11]: 28.4 µM (≈ 50 µg/mL)
MIC [12]: 1.78 µM (≈ 3.13 µg/mL)

Compound: CC[C@H](C)[C@H](NC(=O)[C@H](CC(C)C)NC(=O)CNC(=O)[C@H](CC(C)C)NC(=O)[C@@H](N)Cc1ccccc1)C(=O)NCC(=O)N[C@@H](CO)C(=O)N[C@@H](CC(C)C)C(=O)N[C@@H](CC(C)C)C(N)=O [FLGLIGSLL]
MIC [20]: ≥ 137 µM

Compound: CC[C@H](C)[C@H](NC(=O)[C@@H]1CCCN1C(=O)[C@H](Cc1ccccc1)NC(=O)[C@@H](N)Cc1ccccc1)C(=O)N[C@H](C(=O)NCC(=O)N[C@@H](CCCCN)C(=O)N[C@@H](CC(C)C)C(=O)N[C@@H](CC(C)C)C(=O)N[C@@H](CO)C(N)=O)C(C)C [FFPIVGKLLS]
MIC [24]: ≥ 66.9 µM
MIC [25]: 13.4 µM (≈ 15 µg/mL)
MIC [3]: 26.8 µM (≈ 30 µg/mL)
MIC (Pseudomonas aeruginosa): 22.3 µM (≈ 25 µg/mL)
MIC (Shigella dysenteriae): ≥ 53.6 µM
MIC [26]: 13.4 µM (≈ 15 µg/mL)

Compound: CC[C@H](C)[C@H](NC(=O)[C@H](CCCN=C(N)N)NC(=O)[C@@H](NC(=O)[C@@H](NC(=O)[C@@H]1CCCN1C(=O)[C@@H](NC(=O)[C@@H](NC(=O)[C@@H](NC(=O)[C@@H]1CCCN1C(=O)CNC(=O)[C@H](Cc1ccc(O)cc1)NC(=O)[C@H](CCCCN)NC(=O)[C@H](CCCCN)NC(=O)[C@H](Cc1c[nH]c2ccccc12)NC(=O)[C@H](C)NC(=O)[C@H](CCCN=C(N)N)NC(=O)[C@H](CC(C)C)NC(=O)[C@H](C)NC(=O)[C@H](CCCCN)NC(=O)[C@H](CCCN=C(N)N)NC(=O)CNC(=O)[C@H](CC(C)C)NC(=O)[C@H](CO)NC(=O)[C@H](CCCN=C(N)N)NC(=O)[C@H](C)NC(=O)CNC(=O)CN)[C@@H](C)CC)[C@@H](C)CC)C(C)C)[C@@H](C)CC)[C@@H](C)CC)C(N)=O [GGARSLGRKALRAWKKYGPIIVPIIRI]
MIC [6]: 1.5 µM (≈ 4.48 µg/mL)
MIC [7]: 2.5 µM (≈ 7.47 µg/mL)
MIC [8]: 2.7 µM (≈ 8.07 µg/mL)
MIC [9]: 3.8 µM (≈ 11.4 µg/mL)

Second part, the compound after the results:

MIC [1]: > 500 µM
MIC [2]: 468 µM and 458 µM and 442 µM
MIC [3]: > 500 µM
MIC [4]: ≥ 500 µM
MIC [5]: ≥ 315 µM
Compound: CC(C)C[C@H](NC(=O)CNC(=O)[C@H](Cc1ccc(O)cc1)NC(=O)[C@H](Cc1cnc[nH]1)NC(=O)[C@@H]1CCCN1C(=O)[C@H](CC(C)C)NC(=O)[C@H](CCC(=O)O)NC(=O)[C@H](Cc1ccccc1)NC(=O)[C@H](Cc1cnc[nH]1)NC(=O)[C@H](CO)NC(=O)[C@@H](N)CCCCN)C(=O)O [KSHFELPHYGL]

MIC [13]: ≥ 100 µM
Compound: NCCCC[C@H](N)C(=O)N[C@@H](Cc1c[nH]c2ccccc12)C(=O)N[C@@H](CCCN=C(N)N)C(=O)N[C@@H](CCCN=C(N)N)C(=O)N[C@@H](Cc1c[nH]c2ccccc12)C(N)=O [KWRRW]

MIC [13]: 3.13 µM (≈ 3.56 µg/mL)
Compound: CC(C)C[C@H](NC(=O)[C@H](CC(C)C)NC(=O)[C@H](CCCCN)NC(=O)[C@H](CC(C)C)NC(=O)[C@H](CC(C)C)NC(=O)[C@H](Cc1c[nH]c2ccccc12)NC(=O)[C@H](CCCCN)NC(=O)[C@H](CC(C)C)NC(=O)[C@@H](N)CC(C)C)C(N)=O [LLKWLLKLL]

MIC (Bacillus subtilis): ≥ 60 µM
MIC [2]: 70 µM (≈ 130 µg/mL)
MIC (Escherichia coli): 30 µM (≈ 55.5 µg/mL)
MIC [14]: ≥ 70 µM
MIC [15]: 60 µM (≈ 111 µg/mL)
MIC [16]: 80 µM (≈ 148 µg/mL)
MIC [17]: 80 µM (≈ 148 µg/mL)
MIC [18]: ≥ 100 µM
Compound: CC(C)C[C@H](NC(=O)[C@H](CO)NC(=O)[C@H](CCCN=C(N)N)NC(=O)[C@H](CCCCN)NC(=O)[C@@H](NC(=O)[C@@H](NC(=O)CNC(=O)[C@H](CCCN=C(N)N)NC(=O)[C@H](Cc1cnc[nH]1)NC(=O)[C@H](Cc1c[nH]c2ccccc12)NC(=O)[C@H](Cc1ccccc1)NC(=O)[C@H](Cc1cnc[nH]1)NC(=O)[C@H](Cc1ccc(O)cc1)NC(=O)[C@@H](N)Cc1ccc(O)cc1)C(C)C)[C@@H](C)O)C(=O)O [YYHFWHRGVTKRSL]

MIC [13]: ≥ 100 µM
Compound: CC(C)C[C@H](NC(=O)[C@H](CC(C)C)NC(=O)[C@H](CCCCN)NC(=O)[C@@H](N)CCCCN)C(=O)N[C@@H](CCCCN)C(=O)N[C@@H](Cc1c[nH]c2ccccc12)C(N)=O [KKLLKW]

MIC [19]: ≥ 100 µM
Compound: NC(=O)CC[C@H](NC(=O)[C@H](CCCN=C(N)N)NC(=O)[C@@H](N)CCC(N)=O)C(=O)N[C@@H](CCCN=C(N)N)C(N)=O [QRQR]

MIC [13]: 3.13 µM (≈ 3.34 µg/mL)
Compound: CC(C)C[C@H](NC(=O)[C@H](CC(C)C)NC(=O)[C@H](CCCCN)NC(=O)[C@H](CC(C)C)NC(=O)[C@H](CC(C)C)NC(=O)[C@H](CCCCN)NC(=O)[C@H](CC(C)C)NC(=O)[C@H](CC(C)C)NC(=O)[C@@H](N)CC(C)C)C(N)=O [LLLKLLKLL]

MIC [21]: ≥ 100 µM
MIC [22]: > 100 µM
MIC [19]: ≥ 100 µM
MIC [23]: ≥ 100 µM
Compound: CSCC[C@H](NC(=O)[C@H](Cc1cnc[nH]1)NC(=O)[C@H](CCCCN)NC(=O)[C@H](CC(C)C)NC(=O)[C@H](CCCCN)NC(=O)[C@@H](N)CCCN=C(N)N)C(=O)N[C@@H](CCCN=C(N)N)C(=O)N[C@@H](Cc1ccccc1)C(=O)O [RKLKHMRF]
